The text below walks through data of patent publication US6365126B1, “Learning and short term memory defects with Neurofibromatosis 1 (NF1) expression” (Cold Spring Harbor Laboratory, priority 1997, dated 2002).

Read-outs that look alike come from different tables or passages of the source.

One test has as its system adenylyl cyclase. Nature of the test: Adenylyl cyclase activity assay, membrane fractions of adult brain tissues. The format is biochemical, Drosophila. The settings on record: GTPγS 20 μM. The method, then: The adenylyl cyclase activity assay described in Livingstone, M. S., Proc. Natl. Acad. Sci. USA, 82:5992-5996 (1985)) was modified as follows. The membrane fraction was extracted from either male heads with the cuticle removed to leave essentially brain tissue, or from 10 male abdomens. Twenty (20) dissected brains in 850 μl lysis buffer were homogenized, and the membrane fraction was extracted by centrifugation at 178,000 g for 10 minutes. GTPγS (final concentration, 20 μM) was added to stimulate G-protein activated adenylyl cyclase activity immediately after homogenization but before centrifugation. When assaying the basal level of adenylyl cyclase activity, GTPγS was not added. These modifications seemed to amplify the NF1 effect. Calcium concentrations were calculated according to MaxChelator v1.31 (Bers, D. M. et al., Methods. Cell. Biol., 40:3-29 (1994)). […] Biochemical assays provide direct evidence to support the electrophysiological data. Previous experiments have shown that Rut-AC expressed in a cell line can be stimulated not only by Ca^2+/calmodulin, but also by reagents that stimulate G-proteins, including GTPγS and AIF4^- (see Levin, L. R. et al., Cell, 68:479-489 (1992)). First, AC activity in membrane fractions of adult brain tissues was examined. […] Thus, GTPγS-stimulated AC activity consists of two components: one that is NF1-dependent and one that is NF1-independent.

For test [1], the system named is K^+ currents of body-wall muscle fibers. To be noted: cited from earlier work.
The test system is the same in test [2]. Nature of the test: Two-microelectrode voltage-clamp recording of PACAP38-induced responses, larval body-wall neuromuscular preparation. Further details: species or system Drosophila. On the procedure:
PACAP38-induced responses were recorded by the two-microelectrode voltage-clamp method from body-wall muscle fibers of larvae at the third instar (Zhong, Y., Nature, 375:588-592 (1995); Arimura, A. Regulatory Peptides, 37:287-303 (1992); Spengler, D. et al., Nature, 365:170-175 (1993); Jan, L. Y. et al., J. Physiol., 262:189-214 (1976); Wu, C.-F. et al., Science, 220:1076-1078 (1983); Stewart, B. A. et al., J. Comp. Physiol., 175:179-191 (1994)). Electrophysiological recording: The larval body-wall neuromuscular preparation has been described (Zhong, Y. et al., Neuron, 14:527-536 (1995); Zhong, Y., Nature, 375:588-592 (1995); Jan, L. Y. et al., J. Physiol., 262:189-214 (1976); Wu, C.-F. et al., Science, 220:1076-1078 (1983); Stewart, B. A. et al., J Comp Physiol., 175:179-191 (1994)). The setup, saline, recording conditions and voltage paradigms were as described (Zhong, Y. et al., Neuron, 14:527-536 (1995); Zhong, Y., Nature, 375:588-592 (1995)). For recording the PACAP38-induced synaptic current, the membrane potential was clamped at −80 mV. For recording K^+ currents, command voltages were stepped from the holding potential of −80 to −50 and +20 mV, respectively. […] PACAP38 was applied by pressure ejection through a glass electrode positioned near the voltage-clamped muscle membrane. Forskolin and cAMP analogs were applied to the solution bathing the preparation.

Regarding `Nc1nc2c(ncn2[C@@H]2O[C@H](COP(=O)(O)OP(=O)(O)OP(O)(O)=S)[C@@H](O)[C@H]2O)c(=O)[nH]1` [GTPγS], the “GTPγS stimulated AC activity compared with control (K33)” value with adenylyl cyclase (NF1^P1 and NF1^P2 mutant membranes) is “markedly reduced”. For the same compound, the “GTPγS-stimulated activity compared with the basal level” value with adenylyl cyclase (NF1 mutant membranes) is given as “significant GTPγS-stimulated activity occurred above the basal level”.
Regarding `CCCC(=O)Nc1ncnc2c1ncn2[C@@H]1O[C@@H]2COP(=O)(O)O[C@H]2[C@H]1OC(=O)CCC` [dibutyryl cAMP], in test [1] (larval neuromuscular preparation, no PACAP38), the “PACAP38-like enhancement of K^+ currents by cAMP analog alone” value is “insufficient”. Further, the “effect of cAMP analog on the PACAP38 response” value in test [2] (NF1 mutants (NF1^P2 homozygotes, NF1^P1/NF1^P2 larvae)) is on record as “restore the normal response to PACAP38”; in test [2] (wild-type larvae), “appeared not to disrupt the PACAP38 response”.
With PACAP38, the “PACAP38-induced enhancement of K^+ currents” value is recorded as 100 fold in test [1] (wild-type larvae, perfusion to the neuromuscular junction); “normal enhancement” in test [2] (Gap1 null mutants rI^533B1 and rI^533PB); “abolished” in test [2] (NF1^P1 and NF1^P2 mutant larvae). Moreover, the PACAP38-induced inward current result in test [2] (NF1^P1 and NF1^P2 mutant larvae, membrane potential clamped at -80 mV) was “remained mostly intact”.
